The subject of data set [1] is human monocytic leukemia THP-1 cells. To be noted: for lethal effect on THP-1 cells at the highest dose achieved in the medium: 100 µmol/L; for LD50: human, 24 h.
For data set [2], the system named is M. avium paratuberculosis ATCC19698. The data set is described as follows: In vitro antimycobacterial evaluation (alamarBlue). The data set is classed as cell-based. Conditions: Mycobacterium avium, 264 h; ATCC19698; 11 days; read-out: MIC/IC90 M.avium paratuberculosis.
The test system of data set [3] is photosynthetic electron transport (PET) in spinach chloroplasts. The data set is described as follows: Inhibition of photosynthetic electron transport (PET) in spinach chloroplasts. The data set is classed as biochemical, Spinacia oleracea L. To be noted: photoreduction of DCPIP, pH 7.2. Here is the method:
Chloroplasts were prepared from spinach (Spinacia oleracea L.) according to Masarovicova and Kralova. The inhibition of photosynthetic electron transport (PET) in spinach chloroplasts was determined spectrophotometrically (Genesys 6, Thermo Scientific, USA), using an artificial electron acceptor 2,6-dichlorophenol-indophenol (DCIPP) according to Kralova et al., and the rate of photosynthetic electron transport was monitored as a photoreduction of DCPIP. The measurements were carried out in phosphate buffer (0.02 mol/L, pH 7.2) containing sucrose (0.4 mol/L), MgCl2 (0.005 mol/L) and NaCl (0.015 mol/L). The chlorophyll content was 30 mg/L in these experiments and the samples were irradiated (~100 W/m^2 with 10 cm distance) with a halogen lamp (250 W) using a 4 cm water filter to prevent warming of the samples (suspension temperature 22 °C). The studied compounds were dissolved in DMSO due to their limited water solubility. […] The inhibitory efficiency of the studied compounds was expressed by IC50 values, i.e., by molar concentration of the compounds causing 50% decrease in the oxygen evolution rate relative to the untreated control.

Data set [4] deals with M. avium complex CIT19/06. The data set is described as follows: In vitro antimycobacterial evaluation (alamarBlue). The class given is cell-based. To be noted: Mycobacterium avium, 120 h, read-out: MIC/IC90 M. avium complex. (In general: The colour change of resazurin is a common sign of viable cells or microbes.)
The next data set concerns M. kansasii CIT11/06. Description: In vitro antimycobacterial evaluation (alamarBlue). The data set is classed as cell-based. Conditions: Mycobacterium kansasii, 120 h; CIT11/06; 5 days; read-out: MIC/IC90 M. kansasii.
In data set [5] the test system is M. tuberculosis and other atypical mycobacterial strains. Description: In vitro antimycobacterial screening, results in words. The class given is cell-based, Mycobacterium sp. Conditions: low solubility, precipitation in test media.
Data set [6] has as its system human monocytic leukemia THP-1 cells. Conditions: assessed in this line formerly; cited from earlier work.

These results are taken from PMC6268315, “Investigating the Spectrum of Biological Activity of Substituted Quinoline-2-Carboxamides and Their Isosteres ^†” (Molecules, 2012).

The structures appear in SMILES notation. In brackets after ≈: the same amount, converted by molar mass. Where two headings read alike, the source gives them in different places.

By IC50 is commonly meant the concentration that gives 50% inhibition. A higher IC50 goes with a need for much substance. For the molecule `O=C(c1ccc2ccccc2n1)N1CCCC1` [Compound 3, 2-(Pyrrolidin-1-ylcarbonyl)quinoline], the “lethal effect on THP-1 cells at the highest dose achieved in the medium” value (“lethal effect on THP-1 cells” for short) in data set [1] was “did not lead to the 100% lethal effect”. In data set [1], this molecule yielded an LD50 of more than 100 µmol/L. In addition, the values for the MIC (in data set [2]; in data set [4]; in the data set with M. kansasii CIT11/06) were 111 µM (≈ 25.1 µg/mL), 552 µM (≈ 125 µg/mL) and 111 µM (≈ 25.1 µg/mL), respectively. Inhibition in data set [3] was half-maximal at 1600 µM (IC50).
The term melting point denotes the temperature of the solid-liquid transition. Molecule `O=C(NC1CCCCCCC1)c1ccc2ccccc2n1` [Compound 8, N-Cyclooctylquinoline-2-carboxamide] displayed a melting point of 72 to 73 °C. Besides, the midpoint of inhibition in data set [3], the IC50, lay at 415 µM. The “antimycobacterial activity” value in data set [5] is reported as “no activity”.
As to `O=C(Nc1ccccc1)c1ccc2ccccc2n1` [Compound 9, N-Phenylquinoline-2-carboxamide], 85.1 µM corresponded to half-maximal inhibition in data set [3] (IC50). In addition, the “antimycobacterial activity” value in data set [5] is recorded as “non-active”.
As for `O=C(NCCc1ccccc1)c1ccc2ccccc2n1` [Compound 11, N-(2-Phenylethyl)quinoline-2-carboxamide], the “lethal effect on THP-1 cells” value in data set [1] is given as “did not lead to the 100% lethal effect”. For the same molecule, the LD50 in data set [1] is more than 100 µmol/L. Also, the MIC in data set [2] turned out to be 905 µM (≈ 250 µg/mL); in data set [4] (CIT19/06, 5 days) it was 452 µM (≈ 125 µg/mL); with M. kansasii CIT11/06, 452 µM (≈ 125 µg/mL).
Turning to `O=C(c1ccc2ccccc2c1)N1CCCC1` [Compound 22, 1-(2-Naphthoyl)pyrrolidine], the “lethal effect on THP-1 cells” value in data set [1] is reported as “did not lead to the 100% lethal effect”. Besides, in data set [1], the LD50 is more than 100 µmol/L. For the same molecule, the MIC in data set [2] was found to be 111 µM (≈ 25 µg/mL); in data set [4] it was 554 µM (≈ 125 µg/mL); in the data set on M. kansasii CIT11/06 it was 111 µM (≈ 25 µg/mL).
Consider `CC[C@@]1(O)C(=O)OCc2c1cc1n(c2=O)Cc2cc3ccccc3nc2-1` [camptothecin], for which, in data set [6], the LD50 is listed as 0.16 ± 0.07 µmol/L.
